Data: US10870832B2, “Use of small molecules to enhance MAFA expression in pancreatic endocrine cells” (Janssen Biotech, Inc., priority 2014, dated 2020)

Assays:
Test in all cases: Kinase profiling of R428
Assay type in all cases: biochemical
[1] = biological target: ALK4(h) (Homo sapiens, UniProt P36896); details: 100 μM ATP, lower number = more robust inhibition
Method: (§1) The efficiency of the AXL inhibitor R428 for targeting different kinases was assessed by Kinase Profiling Services using 100 μM ATP concentration (EMD Millipore). R428 was tested at 1 and 10 μM. Table IV lists the kinases profiled along with the efficiency in targeting the kinases with a lower number indicating a more robust inhibition of a particular kinase.

[2] = biological target: Aurora-B(h) (Homo sapiens, UniProt Q96GD4); details: for efficiency in targeting Aurora-B(h): 100 μM ATP, lower number = more robust inhibition
Sequence of Aurora-B(h) (Q96GD4 whole entry): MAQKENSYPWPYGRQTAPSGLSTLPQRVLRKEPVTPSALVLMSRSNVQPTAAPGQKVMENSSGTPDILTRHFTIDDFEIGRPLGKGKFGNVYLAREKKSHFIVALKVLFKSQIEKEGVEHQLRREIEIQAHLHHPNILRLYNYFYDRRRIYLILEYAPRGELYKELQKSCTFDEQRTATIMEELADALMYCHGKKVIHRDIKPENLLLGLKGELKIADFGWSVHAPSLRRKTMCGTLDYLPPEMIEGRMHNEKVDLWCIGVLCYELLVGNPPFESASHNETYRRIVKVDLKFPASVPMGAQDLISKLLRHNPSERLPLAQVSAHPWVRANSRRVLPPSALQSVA
Method: as §1

[3] = biological target: Blk(h) (Homo sapiens, UniProt P51451); details: 100 μM ATP, lower number = more robust inhibition
Sequence of Blk(h) (P51451 whole entry): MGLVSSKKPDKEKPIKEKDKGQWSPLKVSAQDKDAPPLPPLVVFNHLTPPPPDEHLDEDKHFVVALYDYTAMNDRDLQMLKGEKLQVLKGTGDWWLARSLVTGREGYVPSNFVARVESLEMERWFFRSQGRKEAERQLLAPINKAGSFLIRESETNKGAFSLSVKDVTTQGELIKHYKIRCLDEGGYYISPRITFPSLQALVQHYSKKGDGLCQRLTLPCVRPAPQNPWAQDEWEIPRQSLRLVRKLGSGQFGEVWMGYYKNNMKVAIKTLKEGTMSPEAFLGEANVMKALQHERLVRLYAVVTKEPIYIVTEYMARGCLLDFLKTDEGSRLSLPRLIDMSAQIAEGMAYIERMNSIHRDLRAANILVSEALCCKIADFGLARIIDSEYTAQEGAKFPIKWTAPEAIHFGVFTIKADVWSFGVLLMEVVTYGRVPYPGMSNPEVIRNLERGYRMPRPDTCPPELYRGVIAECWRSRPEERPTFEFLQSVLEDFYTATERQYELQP
Method: as §1

[4] = biological target: CDK5/p35(h) (Homo sapiens, UniProt Q00535); details: 100 μM ATP, lower number = more robust inhibition
Method: as §1

[5] = biological target: CHK1(h) (Homo sapiens, UniProt O14757); details: 100 μM ATP, lower number = more robust inhibition
Sequence of CHK1(h) (O14757 whole entry): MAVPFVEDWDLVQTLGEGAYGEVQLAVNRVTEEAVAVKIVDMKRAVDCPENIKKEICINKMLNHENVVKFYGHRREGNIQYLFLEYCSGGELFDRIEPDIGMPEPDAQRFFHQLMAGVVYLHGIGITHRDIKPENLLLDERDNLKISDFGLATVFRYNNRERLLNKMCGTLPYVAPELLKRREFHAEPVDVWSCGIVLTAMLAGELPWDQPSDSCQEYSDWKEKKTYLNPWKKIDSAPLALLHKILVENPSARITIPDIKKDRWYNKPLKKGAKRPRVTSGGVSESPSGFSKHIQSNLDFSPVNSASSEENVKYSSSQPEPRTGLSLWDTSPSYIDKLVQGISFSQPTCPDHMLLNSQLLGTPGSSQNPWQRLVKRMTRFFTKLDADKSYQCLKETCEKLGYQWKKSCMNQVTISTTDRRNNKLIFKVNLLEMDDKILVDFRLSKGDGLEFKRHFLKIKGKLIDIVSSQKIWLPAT
Method: as §1

[6] = biological target: CHK2(h) (Homo sapiens, UniProt O96017); details: 100 μM ATP, lower number = more robust inhibition
Sequence of CHK2(h) (O96017 whole entry): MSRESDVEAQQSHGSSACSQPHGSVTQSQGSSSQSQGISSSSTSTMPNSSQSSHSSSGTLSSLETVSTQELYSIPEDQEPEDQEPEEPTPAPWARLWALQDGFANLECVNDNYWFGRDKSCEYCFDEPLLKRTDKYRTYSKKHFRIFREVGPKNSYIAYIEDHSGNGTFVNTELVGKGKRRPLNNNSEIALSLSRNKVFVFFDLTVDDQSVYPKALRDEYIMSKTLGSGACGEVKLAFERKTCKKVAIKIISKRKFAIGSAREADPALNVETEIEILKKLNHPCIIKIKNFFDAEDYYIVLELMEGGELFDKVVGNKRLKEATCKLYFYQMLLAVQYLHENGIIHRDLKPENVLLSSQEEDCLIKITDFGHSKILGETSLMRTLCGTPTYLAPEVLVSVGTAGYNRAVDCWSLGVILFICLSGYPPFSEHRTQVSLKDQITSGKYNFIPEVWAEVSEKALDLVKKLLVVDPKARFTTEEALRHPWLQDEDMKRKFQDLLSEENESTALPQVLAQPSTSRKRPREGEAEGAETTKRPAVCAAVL
Method: as §1

[7] = biological target: CK2(h) (Homo sapiens, UniProt P68400); details: 100 μM ATP, lower number = more robust inhibition
Method: as §1

[8] = biological target: CK2α2(h) (Homo sapiens, UniProt P19784); details: 100 μM ATP, lower number = more robust inhibition
Method: as §1

[9] = biological target: CLK2(h) (Homo sapiens, UniProt P49760); details: 100 μM ATP, lower number = more robust inhibition
Sequence of CLK2(h) (P49760 whole entry): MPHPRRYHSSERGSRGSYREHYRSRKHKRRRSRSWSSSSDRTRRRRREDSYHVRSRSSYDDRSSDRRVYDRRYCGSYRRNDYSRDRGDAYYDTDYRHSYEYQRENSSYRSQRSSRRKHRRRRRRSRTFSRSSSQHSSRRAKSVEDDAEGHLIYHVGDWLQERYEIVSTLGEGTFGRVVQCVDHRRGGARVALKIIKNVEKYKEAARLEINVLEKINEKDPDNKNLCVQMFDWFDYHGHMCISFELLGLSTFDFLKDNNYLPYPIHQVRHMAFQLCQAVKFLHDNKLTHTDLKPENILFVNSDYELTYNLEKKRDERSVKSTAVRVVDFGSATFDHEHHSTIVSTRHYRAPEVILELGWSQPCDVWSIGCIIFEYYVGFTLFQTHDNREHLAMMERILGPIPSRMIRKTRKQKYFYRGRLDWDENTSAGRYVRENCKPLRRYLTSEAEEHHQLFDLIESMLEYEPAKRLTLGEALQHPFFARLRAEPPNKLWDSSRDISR
Method: as §1

[10] = biological target: CaMKIδ(h) (Homo sapiens, UniProt Q8IU85); details: 100 μM ATP, lower number = more robust inhibition
Sequence of CaMKIδ(h) (Q8IU85 whole entry): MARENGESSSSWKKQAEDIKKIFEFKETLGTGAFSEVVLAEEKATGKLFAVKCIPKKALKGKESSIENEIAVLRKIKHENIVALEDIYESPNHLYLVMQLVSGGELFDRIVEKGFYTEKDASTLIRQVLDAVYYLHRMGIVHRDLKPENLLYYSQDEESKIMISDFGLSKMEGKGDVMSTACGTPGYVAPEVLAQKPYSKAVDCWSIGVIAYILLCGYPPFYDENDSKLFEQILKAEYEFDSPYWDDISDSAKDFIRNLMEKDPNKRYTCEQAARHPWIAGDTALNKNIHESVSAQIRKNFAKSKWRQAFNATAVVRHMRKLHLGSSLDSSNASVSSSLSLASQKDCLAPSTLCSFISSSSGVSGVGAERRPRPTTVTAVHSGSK
Method: as §1

[11] = biological target: EGFR(h) (Homo sapiens, UniProt P00533); details: 100 μM ATP, lower number = more robust inhibition
Method: as §1

[12] = biological target: FGFR1(h) (Homo sapiens, UniProt P11362); details: for efficiency in targeting FGFR1(h): 100 μM ATP, lower number = more robust inhibition
Sequence of FGFR1(h) (P11362 22-822): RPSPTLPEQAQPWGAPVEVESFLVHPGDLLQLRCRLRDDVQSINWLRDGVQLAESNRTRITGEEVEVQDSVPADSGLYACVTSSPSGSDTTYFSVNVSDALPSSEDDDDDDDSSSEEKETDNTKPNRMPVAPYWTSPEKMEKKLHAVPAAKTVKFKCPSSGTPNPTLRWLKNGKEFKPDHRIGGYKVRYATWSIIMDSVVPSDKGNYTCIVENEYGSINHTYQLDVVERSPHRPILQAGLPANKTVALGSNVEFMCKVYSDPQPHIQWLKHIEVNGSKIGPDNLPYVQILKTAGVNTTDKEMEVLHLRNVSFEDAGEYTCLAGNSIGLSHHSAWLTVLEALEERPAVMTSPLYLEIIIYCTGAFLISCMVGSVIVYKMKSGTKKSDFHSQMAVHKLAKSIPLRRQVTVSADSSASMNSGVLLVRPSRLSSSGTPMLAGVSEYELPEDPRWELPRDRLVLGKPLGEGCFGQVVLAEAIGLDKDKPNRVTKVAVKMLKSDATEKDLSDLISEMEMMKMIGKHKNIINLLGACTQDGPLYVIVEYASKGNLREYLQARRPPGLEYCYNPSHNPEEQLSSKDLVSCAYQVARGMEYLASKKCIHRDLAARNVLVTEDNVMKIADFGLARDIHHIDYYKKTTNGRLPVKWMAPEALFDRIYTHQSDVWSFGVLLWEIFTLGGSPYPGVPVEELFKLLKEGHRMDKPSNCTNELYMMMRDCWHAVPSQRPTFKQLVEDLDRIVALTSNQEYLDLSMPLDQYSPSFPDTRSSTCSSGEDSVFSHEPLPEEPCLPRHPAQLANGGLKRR
Method: as §1

[13] = biological target: GSK3 a(h) (Homo sapiens, UniProt P49840); details: 100 μM ATP, lower number = more robust inhibition
Method: as §1

[14] = biological target: GSK313(h) (Homo sapiens, UniProt P49841); details: 100 μM ATP, lower number = more robust inhibition
Method: as §1

[15] = biological target: IKKβ(h) (Homo sapiens, UniProt O14920); details: 100 μM ATP, lower number = more robust inhibition
Method: as §1

[16] = biological target: IR(h) (Homo sapiens, UniProt P06213); details: 100 μM ATP, lower number = more robust inhibition
Method: as §1

[17] = biological target: IRAK4(h) (Homo sapiens, UniProt Q9NWZ3); details: 100 μM ATP, lower number = more robust inhibition
Method: as §1

[18] = biological target: JAK2(h) (Homo sapiens, UniProt O60674); details: 100 μM ATP, lower number = more robust inhibition
Method: as §1

[19] = biological target: JAK3(h) (Homo sapiens, UniProt P52333); details: 100 μM ATP, lower number = more robust inhibition
Method: as §1

[20] = biological target: MAPK1(h) (Homo sapiens, UniProt P27361); details: 100 μM ATP, lower number = more robust inhibition
Sequence of MAPK1(h) (P27361 2-379 limits assumed): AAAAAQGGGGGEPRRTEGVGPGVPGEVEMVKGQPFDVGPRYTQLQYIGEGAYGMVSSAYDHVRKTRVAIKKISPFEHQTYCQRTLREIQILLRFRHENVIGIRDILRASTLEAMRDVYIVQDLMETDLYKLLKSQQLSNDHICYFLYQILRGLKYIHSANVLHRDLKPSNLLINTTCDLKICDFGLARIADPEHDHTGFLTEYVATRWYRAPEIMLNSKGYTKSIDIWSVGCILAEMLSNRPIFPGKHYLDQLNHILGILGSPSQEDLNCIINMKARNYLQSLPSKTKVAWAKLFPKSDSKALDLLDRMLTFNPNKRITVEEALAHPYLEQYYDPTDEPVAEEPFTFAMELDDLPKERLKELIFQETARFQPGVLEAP
Method: as §1

[21] = biological target: NEK2(h) (Homo sapiens, UniProt P51955); details: 100 μM ATP, lower number = more robust inhibition
Method: as §1

[22] = biological target: PAK4(h) (Homo sapiens, UniProt O96013); details: 100 μM ATP, lower number = more robust inhibition
Method: as §1

[23] = biological target: PDGFRβ(h) (Homo sapiens, UniProt P09619); details: 100 μM ATP, lower number = more robust inhibition
Method: as §1

[24] = biological target: PKA(h) (Homo sapiens, UniProt P17612); details: 100 μM ATP, lower number = more robust inhibition
Method: as §1

[25] = biological target: Pim-2(h) (Homo sapiens, UniProt Q9P1W9); details: 100 μM ATP, lower number = more robust inhibition
Method: as §1

[26] = biological target: Plk1(h) (Homo sapiens, UniProt P53350); details: 100 μM ATP, lower number = more robust inhibition
Method: as §1

[27] = biological target: Plk3(h) (Homo sapiens, UniProt Q9H4B4); details: 100 μM ATP, lower number = more robust inhibition
Sequence of Plk3(h) (Q9H4B4 whole entry): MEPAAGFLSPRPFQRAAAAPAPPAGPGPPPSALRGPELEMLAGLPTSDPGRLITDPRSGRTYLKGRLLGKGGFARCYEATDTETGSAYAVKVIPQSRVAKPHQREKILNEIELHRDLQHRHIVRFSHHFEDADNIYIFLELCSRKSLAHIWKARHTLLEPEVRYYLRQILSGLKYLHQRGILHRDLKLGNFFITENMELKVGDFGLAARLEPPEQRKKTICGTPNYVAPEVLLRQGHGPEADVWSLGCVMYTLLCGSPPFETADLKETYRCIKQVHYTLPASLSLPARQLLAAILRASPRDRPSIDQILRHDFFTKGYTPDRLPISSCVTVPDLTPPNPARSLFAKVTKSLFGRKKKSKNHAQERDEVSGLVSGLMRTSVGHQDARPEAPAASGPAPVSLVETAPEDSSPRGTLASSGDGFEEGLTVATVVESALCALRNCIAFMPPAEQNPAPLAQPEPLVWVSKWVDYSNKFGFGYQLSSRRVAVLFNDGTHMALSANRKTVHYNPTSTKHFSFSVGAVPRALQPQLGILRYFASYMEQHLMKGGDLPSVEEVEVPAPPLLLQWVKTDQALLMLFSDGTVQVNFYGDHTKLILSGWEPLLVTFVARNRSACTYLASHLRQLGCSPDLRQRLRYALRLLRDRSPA
Method: as §1

[28] = biological target: SAPK3(h) (Homo sapiens, UniProt P53778); details: 100 μM ATP, lower number = more robust inhibition
Sequence of SAPK3(h) (P53778 whole entry): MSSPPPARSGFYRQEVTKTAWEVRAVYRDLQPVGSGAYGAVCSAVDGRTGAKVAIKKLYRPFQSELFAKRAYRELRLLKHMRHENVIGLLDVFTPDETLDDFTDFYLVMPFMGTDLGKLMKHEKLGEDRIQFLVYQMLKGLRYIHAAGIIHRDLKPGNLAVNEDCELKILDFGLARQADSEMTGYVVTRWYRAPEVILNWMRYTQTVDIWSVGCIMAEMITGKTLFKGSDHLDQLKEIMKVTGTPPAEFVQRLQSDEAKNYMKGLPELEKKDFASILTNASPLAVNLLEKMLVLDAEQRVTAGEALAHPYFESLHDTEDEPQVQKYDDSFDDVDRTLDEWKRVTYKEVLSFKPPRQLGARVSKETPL
Method: as §1

[29] = biological target: TGEBR1(h) (Homo sapiens, UniProt P36897); details: 100 μM ATP, lower number = more robust inhibition
Method: as §1

[30] = biological target: ZAP-70(h) (Homo sapiens, UniProt P43403); details: 100 μM ATP, lower number = more robust inhibition
Method: as §1

[31] = biological target: ZIPK(h) (Homo sapiens, UniProt O43293); details: 100 μM ATP, lower number = more robust inhibition
Method: as §1

[32] = biological target: cSRC(h) (Homo sapiens, UniProt P12931); details: 100 μM ATP, lower number = more robust inhibition
Method: as §1

Nc1nc(Nc2ccc3c(c2)CC[C@@H](N2CCCC2)CC3)nn1-c1cc2c(nn1)-c1ccccc1CCC2 [R428, 1H-1,2,4-Triazole-3,5-diamine, 1-(6,7-dihydro-5H-benzo[6,7]cyclohepta[1,2-c]pyridazin-3-yl) N3-[(7S)-6,7,8,9-tetrahydro-7-(1-pyrrolidinyl)-5H-benzocyclohepten-2-yl]-]
efficiency in targeting ALK4(h) ([1]; R428 @ 1 μM): 84
efficiency in targeting ALK4(h) ([1]; R428 @ 10 μM): 48
efficiency in targeting Aurora-B(h) ([2]; R428 @ 1 μM): 1
efficiency in targeting Aurora-B(h) ([2]; R428 @ 10 μM): 0
inhibition of AuroraB (in words) ([2]; at 1 and 10 μM): potently inhibits
efficiency in targeting Blk(h) ([3]; R428 @ 1 μM): 27
efficiency in targeting Blk(h) ([3]; R428 @ 10 μM): 2
efficiency in targeting CDK5/p35(h) ([4]; R428 @ 1 μM): 101
efficiency in targeting CDK5/p35(h) ([4]; R428 @ 10 μM): 94
efficiency in targeting CHK1(h) ([5]; R428 @ 1 μM): 71
efficiency in targeting CHK1(h) ([5]; R428 @ 10 μM): 23
efficiency in targeting CHK2(h) ([6]; R428 @ 1 μM): 47
efficiency in targeting CHK2(h) ([6]; R428 @ 10 μM): 9
efficiency in targeting CK2(h) ([7]; R428 @ 1 μM): 103
efficiency in targeting CK2(h) ([7]; R428 @ 10 μM): 106
efficiency in targeting CK2α2(h) ([8]; R428 @ 1 μM): 112
efficiency in targeting CK2α2(h) ([8]; R428 @ 10 μM): 97
efficiency in targeting CLK2(h) ([9]; R428 @ 1 μM): 78
efficiency in targeting CLK2(h) ([9]; R428 @ 10 μM): 28
efficiency in targeting CaMKIδ(h) ([10]; R428 @ 1 μM): 76
efficiency in targeting CaMKIδ(h) ([10]; R428 @ 10 μM): 24
efficiency in targeting EGFR(h) ([11]; R428 @ 1 μM): 89
efficiency in targeting EGFR(h) ([11]; R428 @ 10 μM): 40
efficiency in targeting FGFR1(h) ([12]; R428 @ 1 μM): 17
efficiency in targeting FGFR1(h) ([12]; R428 @ 10 μM): 1
inhibition of FGFr1 (in words) ([12]; at 1 and 10 μM): potently inhibits
efficiency in targeting GSK3 a(h) ([13]; R428 @ 1 μM): 95
efficiency in targeting GSK3 a(h) ([13]; R428 @ 10 μM): 105
efficiency in targeting GSK313(h) ([14]; R428 @ 1 μM): 106
efficiency in targeting GSK313(h) ([14]; R428 @ 10 μM): 99
efficiency in targeting IKKβ(h) ([15]; R428 @ 1 μM): 86
efficiency in targeting IKKβ(h) ([15]; R428 @ 10 μM): 53
efficiency in targeting IR(h) ([16]; R428 @ 1 μM): 83
efficiency in targeting IR(h) ([16]; R428 @ 10 μM): 24
efficiency in targeting IRAK4(h) ([17]; R428 @ 1 μM): 94
efficiency in targeting IRAK4(h) ([17]; R428 @ 10 μM): 51
efficiency in targeting JAK2(h) ([18]; R428 @ 1 μM): 96
efficiency in targeting JAK2(h) ([18]; R428 @ 10 μM): 41
efficiency in targeting JAK3(h) ([19]; R428 @ 1 μM): 69
efficiency in targeting JAK3(h) ([19]; R428 @ 10 μM): 18
efficiency in targeting MAPK1(h) ([20]; R428 @ 1 μM): 108
efficiency in targeting MAPK1(h) ([20]; R428 @ 10 μM): 106
efficiency in targeting NEK2(h) ([21]; R428 @ 1 μM): 60
efficiency in targeting NEK2(h) ([21]; R428 @ 10 μM): 10
efficiency in targeting PAK4(h) ([22]; R428 @ 1 μM): 97
efficiency in targeting PAK4(h) ([22]; R428 @ 10 μM): 73
efficiency in targeting PDGFRβ(h) ([23]; R428 @ 1 μM): 37
efficiency in targeting PDGFRβ(h) ([23]; R428 @ 10 μM): 21
efficiency in targeting PKA(h) ([24]; R428 @ 1 μM): 88
efficiency in targeting PKA(h) ([24]; R428 @ 10 μM): 35
efficiency in targeting Pim-2(h) ([25]; R428 @ 1 μM): 87
efficiency in targeting Pim-2(h) ([25]; R428 @ 10 μM): 74
efficiency in targeting Plk1(h) ([26]; R428 @ 1 μM): 83
efficiency in targeting Plk1(h) ([26]; R428 @ 10 μM): 65
efficiency in targeting Plk3(h) ([27]; R428 @ 1 μM): 101
efficiency in targeting Plk3(h) ([27]; R428 @ 10 μM): 81
efficiency in targeting SAPK3(h) ([28]; R428 @ 1 μM): 106
efficiency in targeting SAPK3(h) ([28]; R428 @ 10 μM): 108
efficiency in targeting TGEBR1(h) ([29]; R428 @ 1 μM): 97
efficiency in targeting TGEBR1(h) ([29]; R428 @ 10 μM): 69
efficiency in targeting ZAP-70(h) ([30]; R428 @ 1 μM): 92
efficiency in targeting ZAP-70(h) ([30]; R428 @ 10 μM): 66
efficiency in targeting ZIPK(h) ([31]; R428 @ 1 μM): 97
efficiency in targeting ZIPK(h) ([31]; R428 @ 10 μM): 46
efficiency in targeting cSRC(h) ([32]; R428 @ 1 μM): 51
efficiency in targeting cSRC(h) ([32]; R428 @ 10 μM): 10
